Molecular target: Human neutrophil elastase (Homo sapiens (Human), UniProt P08246)
Assay: Human Neutrophil Elastase Assay
Format: biochemical
Conditions: substrate MeOSuc-Ala-Ala-Pro-Val-AMC 250 μM, pH 7.5, fluorescence
Experimental: Human Neutrophil Elastase Assay
All other materials were of the highest grade commercially available.
The following buffers were used: Compound buffer: 100 mM Tris, 500 mM NaCl, adjusted to pH 7.5; Assay buffer: 100 mM Tris, 500 mM NaCl, adjusted to pH 7.5, containing 0.01% BSA.
Assay conditions: Test compounds were prediluted in DMSO and subsequently in compound buffer (5% DMSO final). […] After inactivation of the enzyme, fluorescence intensities were measured at 380 nm excitation and 460 nm emission wavelengths.
Each plate contains wells with a high value control (DMSO+enzyme+substrate) and wells with a low value control (DMSO+inactivated enzyme+substrate). IC50 values were estimated using a sigmoidal concentration response curve with variable slope. Means of low values were taken as 0%, means of high values as 100%. IC50 values of selected compound in the Neutrophil Elastase assay: […]

Human neutrophil elastase, sequence (P08246 30-267): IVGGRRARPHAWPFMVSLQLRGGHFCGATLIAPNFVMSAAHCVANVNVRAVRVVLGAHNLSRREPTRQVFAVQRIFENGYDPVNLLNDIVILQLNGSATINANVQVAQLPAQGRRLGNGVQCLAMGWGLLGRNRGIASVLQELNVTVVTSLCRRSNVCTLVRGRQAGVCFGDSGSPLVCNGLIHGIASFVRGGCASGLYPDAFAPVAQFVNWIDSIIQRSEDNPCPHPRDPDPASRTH

## Cc1c(-c2ccc(F)c(C(F)(F)F)c2)c(=O)c(C(=O)NCc2ccc(S(C)(=O)=O)cc2)cn1C(C)C [Example 5.2]
  IC50: 0.019 µM

## Cc1c(-c2cccc(C(F)(F)F)c2)c(=O)c(C(=O)NCc2cnn(C)c2)cn1C(C)C [Example 3.4]
  IC50: 0.062 µM

## COc1cc(S(C)(=O)=O)ccc1CNC(=O)c1cn(C(C)C)c(C)c(-c2cccc(C(F)(F)F)c2)c1=O [Example 47, 1-Isopropyl-6-methyl-4-oxo-5-(3-trifluoromethyl-phenyl)-1,4-dihydro-pyridine-3-carboxylic acid 4-methanesulfonyl-2-methoxy-benzylamide]
  IC50: 0.038 µM

## COc1cc(CNC(=O)c2cn(C(C)C)c(C)c(-c3cccc(C(F)(F)F)c3)c2=O)ccc1S(C)(=O)=O [Example 49, 1-Isopropyl-6-methyl-4-oxo-5-(3-trifluoromethyl-phenyl)-1,4-dihydro-pyridine-3-carboxylic acid 4-methanesulfonyl-3-methoxy-benzylamide]
  IC50: 0.047 µM

## Cc1c(-c2cccc(C(F)(F)F)c2)c(=O)c(C(=O)NCc2ccc(S(C)(=O)=O)cn2)cn1CC1CCOC1 (centres unmarked) [Example 2.4]
  IC50: 0.073 µM

## Cc1c(-c2cccc(C(F)(F)F)c2)c(=O)c(C(=O)NCc2ccc(S(C)(=O)=O)c(F)c2)cn1C(C)C [Example 32, 1-Isopropyl-6-methyl-4-oxo-5-(3-trifluoromethyl-phenyl)-1,4-dihydro-pyridine-3-carboxylic acid 3-fluoro-4-methanesulfonyl-benzylamide]
  IC50: 0.015 µM

## CC[C@@H](C)n1cc(C(=O)NCc2nnc(C)o2)c(=O)c(-c2cccc(C(F)F)c2)c1C [Example 25.2, (R)-1-sec-Butyl-5-(3-difluoromethyl-phenyl)-6-methyl-4-oxo-1,4-dihydro-pyridine-3-carboxylic acid (5-methyl-[1,3,4]oxadiazol-2-ylmethyl)-amide]
  IC50: 0.03 µM

## Cc1c(-c2cccc(C(F)(F)F)c2)c(=O)c(C(=O)NCc2ccc(S(C)(=O)=O)cc2)cn1C1CCC1 [Example 7, 1-Cyclobutyl-6-methyl-4-oxo-5-(3-trifluoromethyl-phenyl)-1,4-dihydro-pyridine-3-carboxylic acid 4-methanesulfonyl-benzylamide]
  IC50: 0.027 µM

## Cc1c(-c2cccc(C(F)F)c2)c(=O)c(C(=O)NCc2cnn(C)c2)cn1C(C)C [Example 4.2]
  IC50: 0.06 µM

## Cc1c(-c2cccc(C(F)(F)F)c2)c(=O)c(C(=O)NCc2ccc(CN3CCCC3=O)cc2)cn1C(C)C [Example 3.9]
  IC50: 0.02 µM

## Cc1c(-c2ccnc(C(F)(F)F)c2)c(=O)c(C(=O)NCc2ccc3c(c2)CCS3(=O)=O)cn1C(C)C [Example 29.3, 1-Isopropyl-2-methyl-4-oxo-2′-trifluoromethyl-1,4-dihydro-[3,4]bipyridinyl-5-carboxylic acid (1,1-dioxo-2,3-dihydro-1H-1λ^6-benzo[b]thiophen-5-ylmethyl)-amide]
  IC50: 0.015 µM

## Cc1c(-c2ccc(F)c(C(F)F)c2)c(=O)c(C(=O)NCc2ccc(S(C)(=O)=O)cc2)cn1C(C)C [Example 5.4]
  IC50: 0.061 µM

## Cc1c(-c2cncc(C(F)(F)F)c2)c(=O)c(C(=O)NCc2ccc(S(C)(=O)=O)cc2)cn1C(C)C [Example 5.5]
  IC50: 0.091 µM

## COCCn1cc(C(=O)NCc2ccc(S(C)(=O)=O)cn2)c(=O)c(-c2cccc(C(F)(F)F)c2)c1C [Example 21, 1-(2-Methoxy-ethyl)-6-methyl-4-oxo-5-(3-trifluoromethyl-phenyl)-1,4-dihydro-pyridine-3-carboxylic acid (5-methanesulfonyl-pyridin-2-ylmethyl)-amide]
  IC50: 0.043 µM

## Cc1nnc(CNC(=O)c2cn(C3CCC3)c(C)c(-c3cccc(C(F)F)c3)c2=O)o1 [Example 24.2, 1-Cyclobutyl-5-(3-difluoromethyl-phenyl)-6-methyl-4-oxo-1,4-dihydro-pyridine-3-carboxylic acid (5-methyl-[1,3,4]oxadiazol-2-ylmethyl)-amide]
  IC50: 0.055 µM

## Cc1c(-c2cccc(C(F)(F)F)c2)c(=O)c(C(=O)NCc2cn3c(n2)S(=O)(=O)CC3)cn1C(C)C [Example 38, 1-Isopropyl-6-methyl-4-oxo-5-(3-trifluoromethyl-phenyl)-1,4-dihydro-pyridine-3-carboxylic acid (1,1-dioxo-2,3-dihydro-1H-1λ^6-imidazo[2,1-b]thiazol-6-ylmethyl)-amide]
  IC50: 0.0053 µM

## COC[C@H](C)n1cc(C(=O)NCc2ccc(S(C)(=O)=O)cc2)c(=O)c(-c2cccc(C(F)F)c2)c1C [Example 42, (S)-5-(3-Difluoromethyl-phenyl)-1-(2-methoxy-1-methyl-ethyl)-6-methyl-4-oxo-1,4-dihydro-pyridine-3-carboxylic acid 4-methanesulfonyl-benzylamide]
  IC50: 0.0081 µM

## Cc1c(-c2cccc(C(F)F)c2)c(=O)c(C(=O)NCc2ccc(C#N)cc2)cn1C(C)C [Example 4.5]
  IC50: 0.051 µM

## COC[C@@H](C)n1cc(C(=O)NCc2ccc(S(C)(=O)=O)cc2)c(=O)c(-c2cccc(C(F)F)c2)c1C [Example 44, (R)-5-(3-Difluoromethyl-phenyl)-1-(2-methoxy-1-methyl-ethyl)-6-methyl-4-oxo-1,4-dihydro-pyridine-3-carboxylic acid 4-methanesulfonyl-benzylamide]
  IC50: 0.045 µM

## Cc1c(-c2cccc(C(F)F)c2)c(=O)c(C(=O)NCc2cn3ccccc3n2)cn1C(C)C [Example 4.6]
  IC50: 0.028 µM

## CC[C@@H](C)n1cc(C(=O)NCc2ccc(S(C)(=O)=O)cn2)c(=O)c(-c2cccc(C(F)F)c2)c1C [Example 19.2, (R)-1-sec-Butyl-5-(3-difluoromethyl-phenyl)-6-methyl-4-oxo-1,4-dihydro-pyridine-3-carboxylic acid (5-methanesulfonyl-pyridin-2-ylmethyl)-amide]
  IC50: 0.01 µM

## Cc1cc(CNC(=O)c2cn(C(C)C)c(C)c(-c3ccnc(C(F)(F)F)c3)c2=O)ccc1S(C)(=O)=O [Example 28.3, 1-Isopropyl-2-methyl-4-oxo-2′-trifluoromethyl-1,4-dihydro-[3,4]bipyridinyl-5-carboxylic acid 4-methanesulfonyl-3-methyl-benzylamide]
  IC50: 0.027 µM

## Cc1c(-c2cccc(C(F)F)c2)c(=O)c(C(=O)NCc2ccc3c(cnn3C)c2)cn1C(C)C [Example 4.7]
  IC50: 0.045 µM

## Cc1c(-c2cccc(C(F)F)c2)c(=O)c(C(=O)NCc2cccc(=O)[nH]2)cn1C(C)C [Example 4.4]
  IC50: 0.072 µM

## Cc1c(-c2cccc(C(F)(F)F)c2)c(=O)c(C(=O)NCc2ccc3c(c2)C=CS3(=O)=O)cn1C(C)C [Example 48, 1-Isopropyl-6-methyl-4-oxo-5-(3-trifluoromethyl-phenyl)-1,4-dihydro-pyridine-3-carboxylic acid (1,1-dioxo-1H-1λ^6-benzo[b]thiophen-5-ylmethyl)-amide]
  IC50: 0.011 µM

## Cc1c(-c2cccc(C(F)F)c2)c(=O)c(C(=O)NCc2ccc([S+](C)[O-])cc2)cn1C(C)C (centres unmarked) [Example 4.8]
  IC50: 0.01 µM

## CCC(CC)n1cc(C(=O)NCc2ccc(S(C)(=O)=O)cn2)c(=O)c(-c2ccnc(C(F)(F)F)c2)c1C [Example 23.3, 1-(1-Ethyl-propyl)-2-methyl-4-oxo-2′-trifluoromethyl-1,4-dihydro-[3,4]bipyridinyl-5-carboxylic acid (5-methanesulfonyl-pyridin-2-ylmethyl)-amide]
  IC50: 0.046 µM

## CCC(CC)n1cc(C(=O)NCc2ccc(S(C)(=O)=O)cc2)c(=O)c(-c2cccc(C(F)F)c2)c1C [Example 15.2, 5-(3-Difluoromethyl-phenyl)-1-(1-ethyl-propyl)-6-methyl-4-oxo-1,4-dihydro-pyridine-3-carboxylic acid 4-methanesulfonyl-benzylamide]
  IC50: 0.008 µM

## Cc1c(-c2cccc(C(F)(F)F)c2)c(=O)c(C(=O)NCc2ccc(S(C)(=O)=O)cc2)cn1CC1CC1(F)F (centres unmarked) [Example 1.7]
  IC50: 0.037 µM

## Cc1c(-c2cccc(C(F)F)c2)c(=O)c(C(=O)NCc2ccc(S(C)(=O)=O)cn2)cn1C(C)C [Example 17.2, 5-(3-Difluoromethyl-phenyl)-1-isopropyl-6-methyl-4-oxo-1,4-dihydro-pyridine-3-carboxylic acid (5-methanesulfonyl-pyridin-2-ylmethyl)-amide]
  IC50: 0.015 µM

## CC[C@@H](C)n1cc(C(=O)NCc2ccc(S(C)(=O)=O)cn2)c(=O)c(-c2ccnc(C(F)(F)F)c2)c1C [Example 19.3, (R)-1-sec-Butyl-2-methyl-4-oxo-2′-trifluoromethyl-1,4-dihydro-[3,4′]bipyridinyl-5-carboxylic acid (5-methanesulfonyl-pyridin-2-ylmethyl)-amide]
  IC50: 0.04 µM

## Cc1cc(S(C)(=O)=O)ccc1CNC(=O)c1cn(C(C)C)c(C)c(-c2cccc(C(F)(F)F)c2)c1=O [Example 36, 1-Isopropyl-6-methyl-4-oxo-5-(3-trifluoromethyl-phenyl)-1,4-dihydro-pyridine-3-carboxylic acid 4-methanesulfonyl-2-methyl-benzylamide]
  IC50: 0.019 µM

## Cc1c(-c2cc(Cl)cc(C(F)(F)F)c2)c(=O)c(C(=O)NCc2ccc(S(C)(=O)=O)cc2)cn1C(C)C [Example 5.3]
  IC50: 0.048 µM

## CC[C@H](C)n1cc(C(=O)NCc2ccc(S(C)(=O)=O)cn2)c(=O)c(-c2ccnc(C(F)(F)F)c2)c1C [Example 20.3, (S)-1-sec-Butyl-2-methyl-4-oxo-2′-trifluoromethyl-1,4-dihydro-[3,4]bipyridinyl-5-carboxylic acid (5-methanesulfonyl-pyridin-2-ylmethyl)-amide]
  IC50: 0.063 µM

## CCCn1cc(C(=O)NCc2ccc(S(C)(=O)=O)cc2)c(=O)c(-c2cccc(C(F)(F)F)c2)c1C [Example 1.3]
  IC50: 0.028 µM
